{
  "source": "patent US20190002429A1",
  "about": "“Derivatives of Xanthone Compounds” (Agency for Science, Technology and Research, priority 2011, published 2019)",
  "key": {"MRSA DM21455": {"system": "MRSA DM21455", "assay": "MIC against MRSA DM21455", "format": "cell-based, Staphylococcus aureus"}, "[1]": {"system": "Clinical Staphylococcus aureus DM4400R", "assay": "MIC against clinical S. aureus DM4400R", "format": "cell-based", "conditions": "Source: Cornea"}, "[2]": {"system": "Clinical Staphylococcus aureus DM4299", "assay": "MIC against clinical S. aureus DM4299", "format": "cell-based"}, "MRSA DM21595": {"system": "MRSA DM21595", "assay": "MIC against MRSA DM21595", "format": "cell-based, Staphylococcus aureus"}, "MRSA DR42412": {"system": "MRSA DR42412", "assay": "MIC against MRSA DR42412", "format": "cell-based, Staphylococcus aureus"}, "[3]": {"system": "Straphylococcus aureus ATCC 6538P", "assay": "MIC against S. aureus ATCC 6538P", "format": "cell-based, Staphylococcus aureus"}, "[4]": {"system": "Streptococcus faecium ATCC 10541", "assay": "MIC against Streptococcus faecium ATCC 10541", "format": "cell-based"}, "[5]": {"system": "Staphylococcus aureus ATCC 700699 (VISA)", "assay": "MIC against S. aureus ATCC 700699 (MRSA-700699, VISA)", "format": "cell-based"}, "[6]": {"system": "Enterococcus faecalis 11: DS6527 (VRE 208/11)", "assay": "MIC against Enterococcus faecalis DS6527 (VRE 208/11)", "format": "cell-based", "conditions": "E. faecalis DS6527 (VRE 208/11); no unit in table (Example 10 MICs in μg/ml)"}, "[7]": {"system": "Staphylococcus aureus 10: DB6506 (MRSA04/10) (VISA)", "assay": "MIC against S. aureus DB6506 (VISA)", "format": "cell-based", "conditions": "no unit in table (Example 10 MICs in μg/ml)"}, "[8]": {"assay": "pH value in different media", "format": "physicochemical", "source_text": "The pH values were obtained using an electronic pH meter."}, "MRSA strain DM21455": {"system": "MRSA strain DM21455", "assay": "Kill curve (time killing) of MRSA", "format": "cell-based, Staphylococcus aureus", "conditions": "FIG. 1"}, "rabbit cornea": {"system": "rabbit cornea", "conditions": "in vivo", "source_text": "The particular model used was a 5 mm diameter corneal epithelial abrasion model. Wound healing was monitored by a slit lamp using flourescein disclosure dye so that the size of the wound could be measured. The compounds were applied topically three times per day."}, "[9]": {"assay": "Calcein leakage from DOPE:DOPG liposomes", "conditions": "DOPE:DOPG = 3:1", "experimental": "To further investigate antimicrobial action of the active compounds via inner membrane targeting, a calcein leakage study was performed. In brief, liposomes which mimic bacterial membrane (DOPE: […] The lipids were dissolved in methanol/chloroform (1:2, by volume). The solvent was then dried gently using a constant stream of nitrogen gas. Then, the lipid film was placed under vacuum for at least two hours. […] The hydrated vesicles were freeze-thaw (frozen in liquid nitrogen and warmed in water bath) for at least 7 cycles. Extrusion method using mini-extruder (Avanti Polar Lipid Inc.) was used to produce homogeneous large unilamellar vesicles (LUVs). The extrusion was done for at least 10 cycles using a polycarbonate membrane (Whatman, pore size 100 nm) to obtain LUVs with diameter of 100 nm. To separate the calcein encapsulated vesicles from free calcein, gel filtration column Sephadex G-50 was used. The concentrations of eluted liposomes were determined using total phosphorus determination assay. Leakage of calcein from the liposome induced by AM-series compounds could be monitored using fluorescence spectroscopy (Photon Technology International Model 814) at an excitation wavelength of 490 nm and an emission wavelength of 520 nm. […] Those compounds with […] HC50 values have stronger leakage %. […] To further investigate the inner membrane targeting action of AM-series compounds, E. coli lipid extract was used to construct the liposome. […] Therefore, the outer layer of Gram-negative bacteria (LPS) may play important role to impede the AM-series compounds to reach inner membrane. Calcein leakage data strongly support the active compounds are inner membrane targeting."}, "Gram-negative bacteria": {"system": "Gram-negative bacteria", "assay": "Antimicrobial activity against Gram-negative bacteria (statement)", "format": "cell-based"}, "[10]": {"system": "Mycobacterium tuberculosis"}, "[11]": {"system": "S. aureus and Enterococcus faecalis", "conditions": "4 strains, sub-inhibitory concentrations, FIG. 8"}},
  "note": "Several values for one entry are separate records, joined by “and”; a condition that tells them apart may be missing. Equal entries are not always repeated. Where two headings read alike, the source gives them in different places.",
  "data": [
    {"substance": "3,6-bis-[4-(diethylamino)butoxy)]-1-hydroxy-7-methoxy-2,8-bis(3-methylbut-2-enyl)-9H-xanthen-9-one [AM-016]", "values": [
      {"measurement": "Minimum inhibition concentration (MIC)", "setting": "MRSA DM21455; MRSA DM21455, Source: Eye", "value": "0.39 μg/ml and 0.59 μM"},
      {"measurement": "MIC", "setting": "MRSA DM21455; MRSA-21455 (Eye), Example 10, Mueller Hinton broth dilution", "value": 1.56, "unit": "µg/mL"},
      {"measurement": "Minimum inhibition concentration (MIC)", "setting": "[1]", "value": "0.78 μg/ml and 1.17 μM"},
      {"measurement": "Minimum inhibition concentration (MIC)", "setting": "[2]", "value": "1.56 μg/ml and 2.35 μM"},
      {"measurement": "Minimum inhibition concentration (MIC)", "setting": "MRSA DM21595; MRSA DM21595, Source: Wound", "value": "0.78 μg/ml and 1.17 μM"},
      {"measurement": "MIC", "setting": "MRSA DM21595; MRSA-21595 (Wound), Example 10, Mueller Hinton broth dilution", "value": 0.395, "unit": "µg/mL"},
      {"measurement": "Minimum inhibition concentration (MIC)", "setting": "MRSA DR42412; MRSA DR42412, Source: Sputum", "value": "1.56 μg/ml and 2.35 μM"},
      {"measurement": "MIC", "setting": "MRSA DR42412; MRSA-42412 (Sputum), Example 10, Mueller Hinton broth dilution", "value": 0.395, "unit": "µg/mL"},
      {"measurement": "Minimum inhibition concentration (MIC)", "setting": "[3]", "value": "0.78 μg/ml and 1.17 μM"},
      {"measurement": "Minimum inhibition concentration (MIC)", "setting": "[4]", "value": "0.195 μg/ml and 0.295 μM"},
      {"measurement": "MIC", "setting": "[5]; MRSA-700699, Example 10, Mueller Hinton broth dilution", "value": 0.095, "unit": "µg/mL"},
      {"measurement": "Minimum inhibitory concentration", "setting": "[5]; S. aureus ATCC 700699 (VISA), no unit in table (Example 10 MICs in μg/ml)", "value": 0.39},
      {"measurement": "Minimum inhibitory concentration", "setting": "[6]", "value": 0.098},
      {"measurement": "Minimum inhibitory concentration", "setting": "[7]", "value": 0.78},
      {"measurement": "pH", "setting": "[8]; PBS, 50 μg/ml compound", "value": "6.96 ± 0.01"},
      {"measurement": "pH", "setting": "[8]; PBS, 100 μg/ml compound", "value": "6.97 ± 0.01"},
      {"measurement": "pH", "setting": "[8]; Saline, 50 μg/ml compound", "value": "6.84 ± 0.21"},
      {"measurement": "pH", "setting": "[8]; Saline, 100 μg/ml compound", "value": "6.78 ± 0.05"},
      {"measurement": "pH", "setting": "[8]; Water, 50 μg/ml compound", "value": "6.44 ± 0.27"},
      {"measurement": "pH", "setting": "[8]; Water, 70 μg/ml compound", "value": "6.72 ± 0.23"},
      {"measurement": "Time to eliminate 99.9% of MRSA", "setting": "MRSA strain DM21455", "value": "≤ 20", "unit": "min"},
      {"measurement": "Cytotoxicity to the rabbit eye in corneal wound healing model", "setting": "rabbit cornea", "value": "does not exhibit any cytotoxicity"},
      {"measurement": "Effect on wound healing (percentage wound closing)", "setting": "rabbit cornea", "value": "does not delay wound healing"},
      {"measurement": "% Leakage of calcein", "setting": "[9]; compound:lipid ratio 1:2", "value": 54.43, "unit": "%"},
      {"measurement": "% Leakage of calcein", "setting": "[9]; compound:lipid ratio 1:4", "value": 37.00, "unit": "%"},
      {"measurement": "% Leakage of calcein", "setting": "[9]; compound:lipid ratio 1:8", "value": 21.00, "unit": "%"},
      {"measurement": "Activity against Gram-negative bacteria", "setting": "Gram-negative bacteria", "value": "inactive"},
      {"measurement": "MIC100", "setting": "[10]", "value": 4, "unit": "µM"},
      {"measurement": "MIC100", "setting": "[10]; value in brackets", "value": 2.66, "unit": "µg/mL"},
      {"measurement": "Resistance (>4-fold increase in original MIC) in multipassage study", "setting": "[11]", "value": "no evidence of resistance or cross-resistance"}
    ]}
  ]
}
